Converted amounts (≈) assume the structure as drawn. “Also recorded” adds a separate entry of the source.
How the values were obtained:
[1] = system: adult S. mansoni; test: Phenotypic screen of adult S. mansoni worms, severity scores and descriptors; format: cell-based, Schistosoma mansoni; conditions: for Descriptors (10 µM) 1 h / Severity Scores (10 μM) 1 h / Descriptors (10 µM) 5 h / Severity Scores (10 μM) 5 h / Descriptors (10 µM) 24 h / Severity Scores (10 μM) 24 h / Descriptors (10 µM) 48 h / Severity Scores (10 μM) 48 h: adult S. mansoni; for Descriptors (10 µM) 1 h / Descriptors (10 µM) 5 h / Descriptors (10 µM) 24 h / Descriptors (10 µM) 48 h: phenotypic descriptors; for Severity Scores (10 μM) 1 h / Severity Scores (10 μM) 5 h / Severity Scores (10 μM) 24 h / Severity Scores (10 μM) 48 h: scale 0 (no activity) to 4 (maximal activity); for bioactivity against adult S. mansoni: adult schistosomes; for Severity Scores (10 μM) 1 h / Severity Scores (10 μM) 5 h / Severity Scores (10 μM) 24 h / Severity Scores (10 μM) 48 h / bioactivity against adult S. mansoni: 10 μM
Source text: Because the schistosome parasite can present multiple and dynamic phenotypic responses to chemical insult,[16] we employ a constrained nomenclature of descriptors to describe the changes in the parasite as a function of time and concentration (e.g., motility, density, and shape; and in the case of the adult parasite, an inability to adhere to the bottom of the assay dish). These descriptors are converted into severity scores on a scale of 0 (green)–4 (severest/red) that allow for partially quantitative comparisons of compound effects.[1]−[19] […] The descriptors themselves and their respective scores are detailed in the Supporting Information, Table S1. Severity score data are presented in the results (with the corresponding descriptors detailed in the Supporting Information, Tables S2–S8), and eight new analogs developed and synthesized in support of this effort are described. Finally, absorption, distribution, metabolism and excretion (ADME) data of all compounds presented in this work are reported in the Supporting Information, Table S15.
Table S1. Descriptors and associated severity scores used for S. mansoni adults.
R (rounded or shape altered 1
On sides (adults unable to 1
Shrunk (adults are shorter 1
surface (tegument) of adults)
dfailed to create analytical method
Maintenance of the Schistosoma mansoni life cycle (NMRI isolate), the preparation of adult worms (≥ 42-
days-old), and their co-incubation with test compounds were as described.7-9 Phenotypic responses were
visually recorded using a constrained nomenclature and converted to severity scores on a scale from zero
(no activity) to 4 (maximal activity).8, 9 Use of hamsters for maintaining the S. mansoni life-cycle was
approved by the Institutional Animal Care and Use Committee of the University of California San Diego.
The human myelomonocytic cell line THP -1 was grown at 37 °C and 5% CO2 in RPMI-1640 supplemented
with 10% iFBS, 2 mM glutamate, 100 U/mL penicillin and […] streptomycin.
Drug toxicity to HepG2 cells .10 HepG2 cells line were obtained from the American Type Culture
Collection and cultured in Minimal Essential Medium (MEM) supplemented with 0.19% sodium
bicarbonate, 10% Fetal Bovine Serum, 2 mM L -glutamine, 0.1 mM MEM non-essential amino, 0.009
mg/mL insulin, 1.76 mg/mL bovine serum albumin. The viability of the cells was measured using the MTT
(thiazolyl blue reduction) method. Briefly, ninety -six-well plates were seeded with 2.5 × 10^4 cells/well in
170 ml of culture medium and incubated overnight in 5% CO 2 at 37 °C. Cells were exposed to different
experimental compounds in DMSO. After 48 hours incubation, the viability of the cells was assessed using
MTT (thiazolyl blue reduction) as a dose response assay (11 two -fold serial dilutions) to obtain a calculated
IC50 determination. 4-Azaindolo[2,1-b]quinazoline-6,12-dione is used as a toxicity positive control and
each assay plate includes the following 3 additional controls: a) background control: no cells and no drug
was added, b) target control: cells added but no drugs, and c) DMSO control: same as the target control
except the culture media contains 0.6% DMSO. Absorbance was determined in all wells using a Perkin
Elmer, Ensight plate reader. The fifty percent inhibitory concentrations (IC50’s) were determined using
GraphPad Prism nonlinear regr ession (sigmoidal dose -response, variable slope) equation .
ADME Experiment Protocols
Aqueous pH 7.4 Solubility. Compounds were dried down from 10 mM DMSO solutions using centrifugal
evaporation technique. Phosphate buffer (0.1 M pH 7.4) was added and StirStix were inserted in the glass
vials, with shaking then performed at a constant temperature of 25 °C for 20 -24 h. This step was followed
by double centrifugation with a tip wash in between, to ensure that no residues of the dried compounds
interfere. The solutions were diluted before analysis and quantification using LC/MS/MS was performed.

[2] = Human liver microsomal Clint; format: in vitro ADME; conditions: human liver microsomes, intrinsic clearance; read-out: HLM Clint
[3] = Log D7.4 shake-flask octanol-water; format: physicochemical; conditions: pH 7.4
Description: Log D7.4. Shake-flask octanol-water distribution coefficient was determined at pH 7.4 (Log D7.4). The aqueous solution used is 10 mM sodium phosphate pH 7.4 buffer. The method has been validated for Log D7.4 ranging from -2 to 5.0.
Human Plasma Protein Binding (PPB). PPB was determined using equilibrium dialysis (RED device) to separate free from bound compound. The amount of compound in plasma (10 µM initial concentration) and in dialysis buffer (pH 7.4 phosphate buffer) was measured by LC-MS/MS after equilibration at 37 °C in a dialysis chamber. The fraction unbound (fu) is reported.
Human Liver Microsomal Clint. In vitro intrinsic clearance was determined from human liver microsomes using a standard approach.11 Following incubation and preparation, the samples were analyzed using […]
Rat Hepatocyte Clint. In vitro intrinsic clearance was determined from rat hepatocytes using a standard approach.11 Following incubation and preparation, the samples were analyzed using LC/MS/MS. Refined […]
Calculated LogP and LogD values. Both LogP and LogD predictions are based on a modified version of the method12 where the predicted partition coefficients are composed of the molecules’ atomic increments.
General Chemistry. All starting materials were commercially obtained and were used without further purification, unless specified. Reaction solvents were purified by passage through alumina columns on a purification system manufactured by Innovative Technology (Newburyport, MA). NMR spectra were obtained on Varian NMR systems, operating at 400 or 500 MHz for 1 H acquisitions. LCMS analysis was performed using a Waters AllianceHT e2795 reverse phase HPLC (Waters SunFire C18 4.6 × 50 mm, 3.5 μm column), with a Waters 2996 photodiode array detector scanning from 210 nm to 600 nm, and Waters Micromass ZQ detector (electrospray ionization). Where required, final compounds were purified by preparative reverse phase HPLC (columns Waters Symmetry RP8 30 × 50 mm, 5 μm column, or OBD RP18 30 × 50 mm, 5 μm), with a single wavelength UV−visible detector and Waters Micromass ZQ (electrospray ionization).

[4] = Rat hepatocyte Clint; format: in vitro ADME; conditions: rat hepatocytes, intrinsic clearance; read-out: RH CLint
[5] = Aqueous pH 7.4 solubility; format: physicochemical; conditions: aqueous buffer, thermodynamic from solid; phosphate buffer pH 7.4, 25 °C, 20-24 h; read-out: aq sol (aqueous solubility)

| Structure (SMILES) | microsomal CLint [2] | logD [3] | hepatocyte CLint [4] | solubility [5] | Descriptors (10 µM) 1 h [1] | Severity Scores (10 μM) 1 h [1] | Descriptors (10 µM) 5 h [1] | Severity Scores (10 μM) 5 h [1] | Descriptors (10 µM) 24 h [1] | Severity Scores (10 μM) 24 h [1] | Descriptors (10 µM) 48 h [1] | Severity Scores (10 μM) 48 h [1] | bioactivity against adult S. mansoni [1] |
| --- | --- | --- | --- | --- | --- | --- | --- | --- | --- | --- | --- | --- | --- |
| CCCN1CCCN(c2ncc(-c3ccc4c(Nc5cnccn5)ccnc4c3)cn2)CC1 [4f] | > 300 µL/min/mg | 3.3 | 32 µL/min/1e6 cells |  | none | 0 | none | 0 | none | 0 | none | 0 |  |
| CC(C)(C)OC(=O)N1CCN(c2ncc(-c3ccc4c(Nc5cnccn5)ccnc4c3)cn2)CC1 [3a] | > 300 µL/min/mg | 4.7 | 32 µL/min/1e6 cells |  | none | 0 | none | 0 | none | 0 | none | 0 | no bioactivity |
| O=C(O)C1CCCN1c1ncc(-c2ccc3c(Nc4cnccn4)ccnc3c2)cn1 (stereo not shown) [3c] | < 3 µL/min/mg | 0.1 | < 1 µL/min/1e6 cells |  | none | 0 | none | 0 | none | 0 | none | 0 | no bioactivity |
| CCN1CCN(c2ncc(-c3ccc4c(Nc5cnccn5)ccnc4c3)cn2)CC1 [4b] | > 300 µL/min/mg | 3.5 | 45 µL/min/1e6 cells |  | none | 0 |  | 1 |  | 1 | S, on sides | 2 | activity after 5 h |
| COC(=O)C1CCCN1c1ncc(-c2ccc3c(Nc4cnccn4)ccnc3c2)cn1 (stereo not shown) [3d] | 220 µL/min/mg | 3.5 | 230 µL/min/1e6 cells |  | none | 0 | none | 0 |  | 3 |  | 4 | bioactivity after 24 h, progressing to the severest response by 48 h |
| CN(CCNc1ncc(-c2ccc3c(Nc4cnccn4)ccnc3c2)cn1)C(=O)OC(C)(C)C [3e] | > 300 µL/min/mg | 4.1 | > 300 µL/min/1e6 cells |  | none | 0 | none | 0 | none | 0 |  | 4 | maximal phenotypic response after 48 h |

Continued, in another order:

| microsomal CLint [2] | logD [3] | hepatocyte CLint [4] | solubility [5] | Structure (SMILES) | Descriptors (10 µM) 1 h [1] | Severity Scores (10 μM) 1 h [1] | Descriptors (10 µM) 5 h [1] | Severity Scores (10 μM) 5 h [1] | Descriptors (10 µM) 24 h [1] | Severity Scores (10 μM) 24 h [1] | Descriptors (10 µM) 48 h [1] | Severity Scores (10 μM) 48 h [1] | bioactivity against adult S. mansoni [1] |
| --- | --- | --- | --- | --- | --- | --- | --- | --- | --- | --- | --- | --- | --- |
| 110 µL/min/mg |  | 19 µL/min/1e6 cells | 35 µM (≈ 14.3 µg/mL) | CN1CCCN(c2ncc(-c3ccc4c(c3)ncc3c5ccccc5[nH]c43)cn2)CC1 [6b] | none | 0 |  | 1 |  | 1 |  | 4 | minimal bioactivity after 5 h; also recorded: potent activity after 48 h |
|  | 1.2 | 1 µL/min/1e6 cells |  | CN1CCN(c2ncc(-c3ccc4c(NCCN5CCCC5)ccnc4c3)cn2)CC1 [S1b] | none | 0 | none | 0 | none | 0 |  | 1 | no significant bioactivity |

Source: publication PMC7073886, “Structure–Bioactivity Relationships of Lapatinib Derived Analogs against Schistosoma mansoni” (ACS Medicinal Chemistry Letters, 2020)
